Experimental data from patent US11724998B2, “PXR agonists and uses thereof for gut barrier dysfunction treatment and prevention” (Albert Einstein College of Medicine, priority 2017, dated 2023).
Where two headings read alike, the source gives them in different places.

Assays:
PXR [1] = target: T1, PXR (Homo sapiens, UniProt O75469); test: Isothermic titration calorimetry (ITC); format: binding; conditions: FIG. 11
T1 sequence (O75469 1-434): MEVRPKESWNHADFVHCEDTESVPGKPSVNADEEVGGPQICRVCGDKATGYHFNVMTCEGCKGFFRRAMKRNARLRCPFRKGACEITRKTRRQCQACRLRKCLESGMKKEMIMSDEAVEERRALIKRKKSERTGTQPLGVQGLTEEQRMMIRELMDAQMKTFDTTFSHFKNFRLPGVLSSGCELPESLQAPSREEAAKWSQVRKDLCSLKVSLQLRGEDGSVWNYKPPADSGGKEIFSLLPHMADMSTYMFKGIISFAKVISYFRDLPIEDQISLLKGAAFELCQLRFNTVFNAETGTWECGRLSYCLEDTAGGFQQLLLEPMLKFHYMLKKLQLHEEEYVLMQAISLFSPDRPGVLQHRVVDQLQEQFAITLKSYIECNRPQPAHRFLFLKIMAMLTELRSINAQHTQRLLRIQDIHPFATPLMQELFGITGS

[2] = system: PXR target genes (CYP3A4, MDR1); conditions: human, 24 h, 10 μM
PXR [3] = target: T1, PXR; test: PXR activation (transactivation) luciferase assay in LS180 cells; format: cell-based; design: co-transfecting full-length expressing human PXR plasmid (91) and p3A4 luciferase reporter (92) in LS180 or Caco-2 cells; expressed in transfected cells; host or cells: LS180
Description: (§1) FIG. 6A-6E. Activation and inhibition studies with different FKK compounds. (A) PXR activation, LS180 cells (upper), and PXR inhibition, LS180 cells, co-incubation with RIF (lower). (B) AhR activation, AZ-AHR cells (upper), and AhR inhibition, AZ-AHR cells, co-incubation with TCDD (lower). (C) GR activation, AZ-GR cells (upper), and VDR activation, IZ-VDRE cells (lower). (D) TR activation, PZ-GR cells (upper), and AR activation, AIZ-AR cells (lower). (E) Displacement of radiolabeled 9-cis-retinoic acid (RA) by FKK compounds.
Two molecules that were readily available (Ryan Scientific: FKK999 & BAS451) were purchased and tested in vitro for PXR activation using a HepG2 reporter assay. […] […]. […] In general, reporter cell lines are efficient ways to screen for PXR ligands (72). In the LS180 intestinal cell line, the PXR activation assay involves a transient transfection system using a specific PXR plasmid and reporter plasmid (CVmax % 11.2+2; CVmid % 10.8+0.1.4; Signal Window 6.2+1.1; Z′ factor 0.51+0.005).
(§2) All the synthesized compounds and intermediates were tested for their potential to activate PXR and/or AhR via luciferase assays. The PXR activation assays were performed by co-transfecting full-length expressing human PXR plasmid (91) and p3A4 luciferase reporter (92) in LS180 or Caco-2 cells. AhR activation conducted using stably co-transfected HepG2 reporter cells as previously described (93). […] With the exception of FKK6, there was no significant inhibition of TCDD-induced AhR activation. […] Independent verification of AhR activity of randomly selected compounds—FKK 5, 6 and 9—was performed in a separate laboratory (GHP). Nuclear receptor selectivity was assessed for FKK compounds for GR, ADR, TR and AR using cell-based luciferase assays previously described (93-102). There was no observed biologically significant (>2-fold) induction of nuclear receptor activity (FIG. 6C). RXR ligand displacement is only significant for FKK1 and FKK8 (FIG. 6D).

AhR [4] = target: T2, AhR (Homo sapiens, UniProt P35869); test: AhR inhibition, AZ-AHR cells, co-incubation with TCDD; format: cell-based; design: endogenous in cells; host or cells: AZ-AHR (HepG2); conditions: read-out: inhibition of maximal induction by TCDD
T2 sequence (P35869 11-848): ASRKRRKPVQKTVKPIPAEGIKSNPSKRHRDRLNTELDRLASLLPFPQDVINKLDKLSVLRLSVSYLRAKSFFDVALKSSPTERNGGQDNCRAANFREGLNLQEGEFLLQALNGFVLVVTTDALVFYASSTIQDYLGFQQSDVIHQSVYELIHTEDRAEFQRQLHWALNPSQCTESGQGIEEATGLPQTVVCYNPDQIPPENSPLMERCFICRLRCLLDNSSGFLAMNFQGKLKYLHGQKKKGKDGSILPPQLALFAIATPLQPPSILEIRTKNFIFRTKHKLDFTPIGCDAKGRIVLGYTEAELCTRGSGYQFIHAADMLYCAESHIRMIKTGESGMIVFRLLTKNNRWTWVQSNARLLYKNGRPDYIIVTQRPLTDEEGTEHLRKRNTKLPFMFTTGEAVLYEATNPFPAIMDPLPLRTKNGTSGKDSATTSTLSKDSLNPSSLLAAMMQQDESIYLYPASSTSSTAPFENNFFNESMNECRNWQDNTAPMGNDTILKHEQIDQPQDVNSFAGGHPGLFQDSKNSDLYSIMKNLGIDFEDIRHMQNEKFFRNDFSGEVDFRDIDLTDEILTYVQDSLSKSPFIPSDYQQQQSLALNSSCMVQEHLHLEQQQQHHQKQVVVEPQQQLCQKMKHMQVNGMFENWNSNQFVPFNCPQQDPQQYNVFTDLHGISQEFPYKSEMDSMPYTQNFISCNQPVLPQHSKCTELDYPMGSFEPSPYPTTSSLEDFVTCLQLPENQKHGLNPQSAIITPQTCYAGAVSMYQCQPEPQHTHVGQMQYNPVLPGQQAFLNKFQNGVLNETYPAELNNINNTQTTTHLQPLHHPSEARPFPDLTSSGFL
Description: as §1
as §2, with “There was no observed biologically significant (>2-fold) induction of nuclear receptor activity (FIG. 6C). RXR ligand displacement is only significant for FKK1 and FKK8 (FIG. 6D).” left out

[5] = system: PXR occupancy of the target promoters; test: Chromatin immunoprecipitation assay (ChIP); format: cell-based; conditions: semi-quantitative PCR
Description: These assays were performed as previously published (27).

[6] = system: PXR target genes (CYP3A4, MDR1); test: PXR target gene mRNA expression in plated human hepatocytes; conditions: 10 μM, 24 h, FIG. 2
468 kinases = test: Kinase profiling, scanMAX (KINOMEscan) panel; format: binding; conditions: 10 μM; for Number of Hits: 403 non-mutant kinases
Description: The kinase inhibition assays were conducted by DiscoverX on a platform assay by Ambit BioSciences as described previously (112, 113). FKK6 was screened at a single concentration of 10 μM in duplicate. The scanMAXSM assay panel measures 468 kinases (WorldWideWeb.discoverx.com/services/drug-discovery-development-services/kinase-profiling/kinomescan/scanmax). The assays measures a compound's ability to inhibit binding of a canonical ligand substrate, with 0% activity of control corresponding to full inhibition and 100% activity of control to no inhibition. […] Three different activity cut-offs were analyzed—S(35) or % activity of control <35; S(10) or % activity of control <10; and S(1) or % activity of control <1. To illustrate effect or lack of effect, an image of the entire family of kinases tested were grouped by families and S(35). The TREEspot Kinase dendrogram image was generated using TREEspot™ Software Tool and reprinted with permission from KINOMEscan®, a division of DiscoveRx Corporation, © DISCOVERX CORPORATION 2010.

RXR = RXR ligand displacement (radiolabeled 9-cis-retinoic acid); format: binding; conditions: displacement of radiolabeled 9-cis-retinoic acid
Description: as §1
as §2, with “There was no observed biologically significant (>2-fold) induction of nuclear receptor activity (FIG. 6C). RXR ligand displacement is only significant for FKK1 and FKK8 (FIG. 6D).” left out

[7] = system: PXR target genes (CYP3A4, MDR1); conditions: human
AhR [8] = target: T2, AhR; test: AhR activation, AZ-AHR (stably co-transfected HepG2) reporter cells; format: cell-based; design: endogenous in cells; host or cells: AZ-AHR (HepG2); conditions: to a much lesser extent than FKK 2 and 9; FIG. 6B
Description: as §1, §2

PXR [9] = target: T1, PXR; test: PXR inhibition, LS180 cells, co-incubation with RIF; format: cell-based; design: co-transfecting full-length expressing human PXR plasmid (91) and p3A4 luciferase reporter (92) in LS180 or Caco-2 cells; expressed in transfected cells; host or cells: LS180; conditions: FIG. 6A
Description: as §1
as §2, with “There was no observed biologically significant (>2-fold) induction of nuclear receptor activity (FIG. 6C). RXR ligand displacement is only significant for FKK1 and FKK8 (FIG. 6D).” left out

RXR ligand displacement (RXR)	CYP3A4 mRNA induction [7]	SMILES	binding to human PXR (PXR [1])	CYP3A4 induction [2]	MDR1 induction [2]	EC50 (PXR [3])	Emax (PXR [3]; read-out: Emax/Emax[rifampicin, positive control])	inhibition at 10 µM (AhR [4])	PXR occupancy of the target promoters [5]	CYP3A4 induction [6]	MDR1 induction [6]	S(1-35)-scores (468 kinases; duplicate)	inhibitory effects on kinases (468 kinases; 468 kinases)	Number of Hits (468 kinases; S(1), % activity of control <1)	Number of Hits (468 kinases; S(10), % activity of control <10)	Number of Hits (468 kinases; S(35), % activity of control <35)	AhR activation profile (AhR [8])	rifampicin-dependent PXR antagonism (inhibition) (PXR [9])
–	–	C#CCC(O)(c1ccncc1)c1cc2ccccc2n1S(=O)(=O)c1ccccc1 (stereo not drawn) [FKK6]	efficient and direct binding	~10 fold	> 6 fold	880 nM	117%	~25%	efficiently induces PXR occupancy	~2.6 fold	~1.5 fold	0	lack of inhibitory effects of FKK6 on any kinase	0	0	0	–	–
significant	1.5 fold	O=S(=O)(c1ccccc1)n1c(C(O)Cc2cc3ccccc3[nH]2)cc2ccccc21 (stereo not drawn) [FKK8]	–	–	–	–	–	–	–	–	–	–	–	–	–	–	variable degrees of dose-dependent AhR activation	rifampicin-dependent PXR antagonism (inhibition)
